These results are taken from patent US12077605B2, “Cysteine protease inhibitors and methods of use thereof” (ANIXA BIOSCIENCES, INC., priority 2022, dated 2024).

pIC50: −log10 of the molar value.

What is called pIC50 is the IC50 on a negative log10 scale, so that one unit is a factor of ten.

This experiment deals with SARS-CoV-2 main protease M^pro (Severe acute respiratory syndrome coronavirus 2 (2019-nCoV) (SARS-CoV-2), UniProt P0DTD1). The experiment is described as follows: Mpro enzyme activity assay (biochemical FRET-based). Particulars: recombinant Mpro (Ser1-Gln306); EDANS/Dabcyl FRET substrate peptide 2 μM; 30 min pre-incubation; pH 7.3; read-out: Mpro inhibition IC50.

As for `CNC(=O)C(=O)[C@H](CN1CCNC1=O)NC(=O)[C@H](CC(C)C)NC(=O)c1cc2c(OC)cccc2[nH]1` [compound 2, 4-methoxy-N-((S)-4-methyl-1-(((S)-4-(methylamino)-3,4-dioxo-1-(2-oxoimidazolidin-1-yl)butan-2-yl)amino)-1-oxopentan-2-yl)-1H-indole-2-carboxamide], the pIC50 was 6.94.
